Paper PMC8330795, “In silico identification and experimental validation of cellular uptake by a new cell penetrating peptide P1 derived from MARCKS” (Drug Delivery, 2021)

Tests used:
HSC-T6 cells [1] = system: HSC-T6 cells
Procedure: Cytotoxicity was measured using MTT assay. Grown cells were inoculated for 24 h at a density of 10000 cells/well in 96-well plates. After washing with PBS, the indicated concentrations of peptides were added, following by further incubation for 24 h or 48 h. After at least two-times washing, 5 mg/ml MTT dissolved in PBS with serum-free media was added into plates for another 4 h incubation. Dimethyl sulfoxide (DMSO) was added into plates and incubated at 37 °C for 15–30 minutes to dissolve the formazan crystals. The absorbance of aliquot from each well was measured at 490 nm using a Multiskan Spectrum (Thermo Fisher Scientific, Waltham, MA, USA) microplate reader. Experiments were repeated three times.

BV2 = assay: Peptide-mediated transfection of pdsRed plasmid, RFP expression; assay type: cell-based, mouse; settings: BV2, 80:1 group
Procedure: HSC-T6, BV2 and MCF7 cells (4 × 10^4 cells/well) were seeded onto 24-well plates 24 h before the experiment. Cells were incubated with CPP-P1/pDNA complexes at indicated N/P ratios for 4 hrs in serum-free media, and then were incubated for 24 h or 48 h after adding media with 10% serum. Live cell imaging under fluorescence microscope was carried out to estimate peptide-based transfection efficiency. Cells transfected with TurboFectin (OriGene, Beijing, China) were used as positive transfection reagent.

HSC-T6 cells [2] = assay: Cellular uptake of FITC-labeled peptide, fluorescence microscopy and lysate fluorescence; assay type: cell-based, rat
Procedure: Cells were suspended in regular culture media and seeded on coverslip in a 24-well plate at a concentration of 1.6 × 10^4 cells/well. Rinsing with PBS twice after 24 h of incubation for cell attachment, FITC-labeled peptides at indicated concentrations were added with 0.5 ml serum-free media/well and incubated for 1 hour at 37 °C. After incubation, the cells were washed with PBS at least three times. 4′,6-diamidino-2-phenylindole (DAPI) was added to each well and incubated for 5 min after fixation with 4% paraformaldehyde (PFA) in PBS. The cells were washed with PBS, mounted on the slide, and observed by fluorescence microscopy (Nikon, Tokyo, Japan). To analyze the internalization efficiency of CPP, the fluorescence of cell lysates and supernatants was measured using TECAN Safire multi-well reader with excitation and emission wavelengths set to 485 nm and 535 nm, following the protocol published (Wang et al., [2010]; Ma et al., [2015]; Wang et al., [2016]; [2016]; Zhou et al., [2017]; Shao et al., [2016]; Zhang et al., [2019]; Geng et al., [2020]). After the cell incubation with peptide and washing step described above, cells were lysed with 300 µl lysis buffer (0.1 M NaOH) for 10 minutes and centrifuged at 800 rpm for 5 minutes. Fluorescence in the 50 µl supernatant transferred to a 96-well plate was monitored by the plate-reader spectrophotometer (Tecan, Mannedorf, Switzerland). The amount of FITC-labeled peptides internalized were normalized by protein concentration, and the experiments indicated were repeated at least three times.

BV2 cells = assay: as above; assay type: cell-based, mouse; settings: FITC-labeled peptide 5 μM
Procedure: (§1) Cells were suspended in regular culture media and seeded on coverslip in a 24-well plate at a concentration of 1.6 × 10^4 cells/well. Rinsing with PBS twice after 24 h of incubation for cell attachment, FITC-labeled peptides at indicated concentrations were added with 0.5 ml serum-free media/well and incubated for 1 hour at 37 °C. After incubation, the cells were washed with PBS at least three times. 4′,6-diamidino-2-phenylindole (DAPI) was added to each well and incubated for 5 min after fixation with 4% paraformaldehyde (PFA) in PBS. The cells were washed with PBS, mounted on the slide, and observed by fluorescence microscopy (Nikon, Tokyo, Japan).
(§2) To analyze the internalization efficiency of CPP, the fluorescence of cell lysates and supernatants was measured using TECAN Safire multi-well reader with excitation and emission wavelengths set to 485 nm and 535 nm, following the protocol published (Wang et al., [2010]; Ma et al., [2015]; Wang et al., [2016]; [2016]; Zhou et al., [2017]; Shao et al., [2016]; Zhang et al., [2019]; Geng et al., [2020]). After the cell incubation with peptide and washing step described above, cells were lysed with 300 µl lysis buffer (0.1 M NaOH) for 10 minutes and centrifuged at 800 rpm for 5 minutes. Fluorescence in the 50 µl supernatant transferred to a 96-well plate was monitored by the plate-reader spectrophotometer (Tecan, Mannedorf, Switzerland). […]

MCF7 = assay: as above; assay type: cell-based, human; settings: FITC-labeled peptide 5 μM; MCF7 compared with other cell lines
Procedure: as §1, §2

Mouse erythrocytes = assay: Hemolysis assay; assay type: cell-based; settings: mouse erythrocytes in PBS, 37 °C, 2 h, absorbance 450 nm; 0.1% Triton X-100 positive control
Procedure: Mouse erythrocytes free of plasma components were separated by centrifugation at 1000 rpm for 5 minutes and washed three times with PBS. The washed mouse erythrocytes were resuspended in PBS and treated with indicated concentrations of peptides at 37 °C for 2 h. Hemolysis was examined by measuring the absorbance of supernatant at the wavelength of 450 nm, and 0.1% Triton X-100 was used as a positive control.

For KKKKKRFSFKKSFKLSGFSFKKNKK [P1], the “cytotoxicity, MTT assay” value (HSC-T6 cells [1]) was “did not find significant cytotoxicity”, the “RFP expression at N/P 80:1” value (BV2) was “could not find RFP positive cells” and the “penetration efficiency with chloroquine (CQ)” value (HSC-T6 cells [2]; 100 μM CQ, fluorescent quantification, Figure S6, cell line not stated at place) was “no obvious effect”. The “fluorescence of peptide versus incubation time” value (HSC-T6 cells [2]; FITC-labeled peptide 5 μM, after 1 hour treatment, longer incubation times, images and fluorescence quantification) was “significantly decreased as incubation time increased”, the “penetration property versus peptide concentration” value (HSC-T6 cells [2]; FITC-labeled peptide, 1 hour, 37 °C, serum-free media, fluorescence normalized with protein concentration) was “concentration dependent” and the “penetration efficiency with sucrose” value (HSC-T6 cells [2]; peptide 5 μM with 0.3 M and 0.6 M sucrose, cell line not stated at place) was “inhibited”. For the same sequence, the “penetration efficiency with penetration enhancer DMSO” value (HSC-T6 cells [2]; peptide 5 μM with 5% DMSO (2.5% and 5% tested), cell line not stated at place) was “enhanced”, the “penetration efficiency at low temperature” value (HSC-T6 cells [2]; peptide 5 μM, 25 °C and 4 °C compared to 37 °C) was “significantly inhibited” and the “uptake inhibited by endocytosis inhibitors” value (HSC-T6 cells [2]; peptide 5 μM, same inhibitor list, inhibitor giving this value not specified) was “about 20%”. The “penetration efficiency compared with other published CPPs” value (HSC-T6 cells [2]; peptides 5 μM, FITC-labeled, versus MT23 and TAT, cell line not stated at place) was “higher penetration efficiency than MT23 and TAT”, the “penetration into hard-to-translocate cells” value (BV2 cells) was “could enter into hard-to-translocate BV2 cells in significant amount” and the “penetration efficiency in different cell lines” value (MCF7) was “higher penetration efficiency in MCF7”. The “hemolysis of red blood cells” value (Mouse erythrocytes) was “minimally perturbed”.
